Source: US8338414B2, “Immunosuppressive agent and anti-tumor agent comprising heterocyclic compound as active ingredient” (Zenyaku Kogyo KabushikiKaisha, priority 2005, dated 2012)
Where two headings read alike, the source gives them in different places.

Key:
[1] = tested on: mouse spleen cells; assay: Proliferation inhibition assay for mouse spleen cells; assay type: cell-based; conditions: 72 h, 3 days, Alamar Blue
Procedure: Spleen cells (2×10^6 cells/mL) prepared from C57BL/6N female mice (8 weeks old, purchased from Charles River Laboratories Japan Inc.) were suspended in RPMI 1640 medium (containing 10% fetal bovine serum, 10 mM HEPES, 1 mM pyruvic acid, 4.5 g/L glucose, 100 units/mL penicillin, and 0.1 mg/mL streptomycin), and seeded in wells of a 96 well plate at 0.225 mL per well. Serial dilutions of test substances were added to respective wells, and then concanavalin A (Con A, 3 μg/mL), lipopolysaccharide (LPS, 100 μg/mL), or an anti-mouse IgM antibody (100 μg/mL) were added. Thereafter, they were incubated under conditions of carbon dioxide 5% at a temperature 37° C. for 3 days. Next, Alamar Blue solution was added at 50 μL per 150 μL, and after having cultured for one day, the fluorescence intensity at 590 nm using an excitation wavelength of 530 nm was determined by Cytoflour 4000 (Applied Biosystems).

[2] = tested on: human peripheral blood mononuclear cells; assay: Proliferation inhibition assay for human peripheral blood mononuclear cells; assay type: cell-based; conditions: Homo sapiens, 72 h; PBMC, anti-CD3 and anti-CD28 antibody, 3 days, Alamar Blue
Procedure: 4 mL of blood collected from healthy subjects was placed on 3 mL of MonoPoly Resolving Medium, and after centrifugation, the mononuclear cell (PBMC) fraction was collected. After washing with saline, PBMC (1×10^5 cells/mL) was suspended in RPMI 1640 medium (containing 10% fetal bovine serum, 10 mM HEPES, 1 mM pyruvic acid, and 4.5 g/L glucose). Next, after having added an anti-CD28 antibody (1 μg/mL) to the suspension, they were seeded on an anti-human CD3 T cell activation plate (BD Bioscience) at a capacity of 0.135 mL per well. Then, serial dilutions of test substances were added to respective wells, and incubated under conditions of carbon dioxide 5% at a temperature 37° C. After 3 days, Alamar Blue solution was added at 50 μL per well, and after incubation for one day, a fluorescence intensity at 590 nm using an excitation wavelength of 530 nm was determined by Cytoflour 4000 (Applied Biosystems).

[3] = tested on: Rabbit synoviocytes HIG-82; assay: Inhibition assay for proliferation of rabbit synoviocyte; assay type: cell-based; conditions: Oryctolagus cuniculus, 72 h; HIG-82, 3 days, Alamar Blue
Procedure: Rabbit synoviocytes HIG-82 suspended in HAM medium (containing 10% fetal bovine serum, 25 mM HEPES, and 0.1 mg/mL kanamycin) (with 4×10^4 cells/mL) were seeded in wells of a 96 well plate at 0.135 mL per well. Then, 15 μL of each of serial dilutions of test substances was added to a respective well, and incubated under conditions of carbon dioxide 5% at a temperature 37° C. Alamar Blue solution was added at 50 μL per well on day 0 and day 3, and incubated for one day, and thereafter fluorescence intensity at 590 nm using an excitation wavelength of 530 nm was determined by Cytoflour 4000 (Applied Biosystems).

[4] = tested on: allogeneic mixed lymphocyte reaction; assay: Allogeneic mixed lymphocyte reaction; assay type: cell-based, mouse; conditions: Mus musculus, Lymphocyte; C57BL/6N spleen stimulator cells, BALB/c lymph node responder cells, 86 hours, BrdU
Procedure: Spleen cells prepared from C57BL/6N female mice (8-10 weeks old, purchased from Charles River Laboratories Japan Inc.) and peripheral lymph node mononuclear cells prepared from BALB/c female mice (8-10 weeks old, purchased from Charles River Laboratories Japan Inc.) were used as stimulator cells and responder cells, respectively. The respective cells were suspended in RPMI 1640 medium (containing 10% fetal bovine serum, 100 units/mL penicillin, and 0.1 mg/mL streptomycin) (with 2×10^6 cells/mL).

[5] = tested on: Daudi cells; assay: Proliferation inhibitory activity on hematologic neoplasm cells, Daudi; assay type: cell-based; conditions: Homo sapiens, Daudi, 72 h; 3 days, Alamar Blue
Procedure: (§1) Daudi cells (5×10^5 cells/mL), Jurkat cells (5×10^5 cells/mL), THP-1 cells (5×10^5 cells/mL), U 937 cells (5×10^5 cells/mL), and HL 60 cells (5×10^5 cells/mL) suspended in RPMI 1640 medium (containing 10% fetal bovine serum, 10 mM HEPES, 1 mM pyruvic acid, 4.5 g/L glucose, 100 units/mL penicillin, and 0.1 mg/mL streptomycin) were seeded in 96 well plates at a capacity of 0.135 mL per well. Serial dilutions of test substances were added to respective wells at 15 μL/well, and incubated under conditions of carbon dioxide 5% at 37° C. for 3 days. Thereafter, Alamar Blue solution was added at 50 μL, and after incubation for one day, the fluorescence intensity at 590 nm using an excitation wavelength of 530 nm was determined by Cytoflour 4000 (Applied Biosystems).

[6] = tested on: Jurkat cells; assay: Proliferation inhibitory activity on hematologic neoplasm cells, Jurkat; assay type: cell-based; conditions: Homo sapiens, Jurkat, 72 h; 3 days, Alamar Blue
Procedure: as §1

[7] = tested on: HL 60 cells; assay: Proliferation inhibitory activity on hematologic neoplasm cells, HL60; assay type: cell-based; conditions: Homo sapiens, HL-60, 72 h; 3 days, Alamar Blue
Procedure: as §1

[8] = tested on: THP-1 cells; assay: Proliferation inhibitory activity on hematologic neoplasm cells, THP-1; assay type: cell-based; conditions: Homo sapiens, THP-1, 72 h; 3 days, Alamar Blue
Procedure: as §1

[9] = tested on: U 937 cells; assay: Proliferation inhibitory activity on hematologic neoplasm cells, U937; assay type: cell-based; conditions: Homo sapiens, U-937, 72 h; 3 days, Alamar Blue
Procedure: as §1

[10] = tested on: fulminant hepatitis; assay: Fulminant hepatitis model (galactosamine and LPS); assay type: in vivo, mouse; conditions: BALB/c mice, galactosamine 800 mg/kg and LPS 110 μg/kg i.p.
Procedure: BALB/c male mice (7 weeks old, purchased from Charles River Laboratories Japan Inc.) were used in the experiment. After having orally administered the test substances suspended in 5% HPC, galactosamine (800 mg/kg) and LPS (110 μg/kg) were intraperitoneally administered. Then, survival rates at 72 hours after administration were obtained.

[11] = LPS 100 μg/mL, read-out: Inhibition of LPS response
[12] = anti-mouse IgM antibody 100 μg/mL, read-out: Inhibition of Anti-IgM antibody response
[13] = concanavalin A 3 μg/mL, read-out: Inhibition of Con A response

Row | IC50 [4] [nM] | IC50 [5] [nM] | IC50 [6] [nM] | IC50 [7] [nM] | IC50 [8] [nM] | IC50 [9] [nM] | melting point | SMILES | IC50 [1, 11] [nM] | IC50 [1, 12] [nM] | IC50 [1, 13] [nM] | IC50 [2] [nM] | IC50 [3] [nM] | Survival Rate after 72 Hours ([10]; 100 mg/kg oral) [%] | Survival Rate after 72 Hours ([10]; 50 mg/kg oral) [%]
1 | 344 | 160 | > 10000 | 1790 | 794 | > 10000 | 259 to 260 °C | Cc1cccc2c1nc(C(F)F)n2-c1nc(N2CCOCC2)nc(N2CCOCC2)n1 [Compound 10, 2-(2-Difluoromethyl-4-methylbenzimidazol-1-yl)-4,6-dimorpholino-1,3,5-triazine] | 10000 to 100000 | 100 to 10000 | 100 to 10000 | 825 | 6510 |  | 
2 | 670 | 827 | 5020 | > 10000 | 535 | > 10000 | 218 to 220 °C (dec.) | Cc1nc2ccccc2n1-c1nc(N2CCOCC2)nc(N2CCOCC2)n1 [Compound 1, 2-(2-Methylbenzimidazol-1-yl)-4,6-dimorpholino-1,3,5-triazine] | 100 to 10000 |  | 100 to 10000 | 1780 | 4850 |  | 
3 | 258 | 13.2 | 229 | 139 | 68.6 | 345 |  | COc1ccc2c(c1)nc(C(F)F)n2-c1nc(N2CCOCC2)nc(N2CCOCC2)n1 [Compound 23, 2-(2-Difluoromethyl-5-methoxybenzimidazol-1-yl)-4,6-dimorpholino-1,3,5-triazine] |  |  |  | 19.2 | 121 |  | 
4 | 227 | 65.5 | 1340 | 396 | 286 | 1110 | 214 to 216 °C (dec.) | Nc1cccc2c1nc(C(F)F)n2-c1nc(N2CCOCC2)nc(N2CCOCC2)n1 [Compound 14, 2-(4-Amino-2-difluoromethylbenzimidazol-1-yl)-4,6-dimorpholino-1,3,5-triazine] |  |  |  | 92.3 | 484 |  | 
5 | 460 | 10.3 | 357 | 67.2 | 112 | 604 | > 250 °C | Oc1ccc2nc(C(F)F)n(-c3nc(N4CCOCC4)nc(N4CCOCC4)n3)c2c1 [Compound 16, 2-(2-Difluoromethyl-6-hydroxybenzimidazol-1-yl)-4,6-dimorpholino-1,3,5-triazine] |  |  |  | 12.3 | 163 |  | 
6 | 600 | 379 | 3270 | 3160 | 135 | 4140 | 208 to 210 °C (dec.) | OCc1nc2ccccc2n1-c1nc(N2CCOCC2)nc(N2CCOCC2)n1 [Compound 3, 4,6-Dimorpholino-2-(2-hydroxymethylbenzimidazol-1-yl)-1,3,5-triazine] | 100 to 10000 |  | 100 to 10000 | 1130 | 1780 |  | 
7 |  |  |  |  |  |  |  | Oc1cccc2c1nc(C(F)F)n2-c1nc(N2CCOCC2)cc(N2CCOCC2)n1 [Compound 18, 2-(2-Difluoromethyl-4-hydroxybenzimidazol-1-yl)-4,6-dimorpholinopyrimidine] |  |  |  |  |  | 80 | 50

Row | SMILES | IC50 [4] [nM] | IC50 [5] [nM] | IC50 [6] [nM] | IC50 [7] [nM] | IC50 [8] [nM] | IC50 [9] [nM] | melting point | IC50 [1, 11] [nM] | IC50 [1, 12] [nM] | IC50 [1, 13] [nM] | IC50 [2] [nM] | IC50 [3] [nM] | Survival Rate after 72 Hours ([10]; 100 mg/kg oral) [%] | Survival Rate after 72 Hours ([10]; 50 mg/kg oral) [%]
8 | Nc1nc2ccccc2n1-c1nc(N2CCOCC2)nc(N2CCOCC2)n1 [Compound 6, 2-(2-Aminobenzimidazol-1-yl)-4,6-dimorpholino-1,3,5-triazine] | 3630 | 803 | 6620 | > 10000 | 5540 | > 10000 |  | 100 to 10000 | 100 to 10000 | 100 to 10000 | 2080 | 6350 | 40 | 
9 | Oc1cccc2c1nc(C(F)F)n2-c1nc(N2CCOCC2)nc(N2CCOCC2)n1 [Compound 15, 2-(2-Difluoromethyl-4-hydroxybenzimidazol-1-yl)-4,6-dimorpholino-1,3,5-triazine] | 42.1 | 4.92 | 116 | 35.8 | 45.4 | 217 |  |  |  |  | 2.91 | 85.6 | 0 | 17
